Measurements reported in PubChem BioAssay (NCI).
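Test compounds were applied to cells in 96-well plates for 48 hours at 5 doses. At the GI50, growth is halved. TGI: concentration producing complete growth inhibition.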

Assays:
Test in all cases: DTP human tumour cell line panel, 48 h
[1] = test system: 786-0 renal
[2] = test system: A498 renal
[3] = test system: A549 NSCLC
[4] = test system: ACHN renal
[5] = test system: BT-549 breast
[6] = test system: CAKI-1 renal
[7] = test system: CCRF-CEM leukemia
[8] = test system: COLO 205 colon
[9] = test system: DU-145 prostate
[10] = test system: HCC-2998 colon
[11] = test system: HCT-116 colon
[12] = test system: HCT-15 colon
[13] = test system: HL-60(TB) leukemia
[14] = test system: HOP-62 NSCLC
[15] = test system: HS 578T breast
[16] = test system: HT29 colon
[17] = test system: IGROV1 ovarian
[18] = test system: K-562 leukemia
[19] = test system: KM12 colon
[20] = test system: LOX IMVI melanoma
[21] = test system: M14 melanoma
[22] = test system: MALME-3M melanoma
[23] = test system: MCF7 breast
[24] = test system: MDA-MB-231 breast
[25] = test system: MDA-MB-435
[26] = test system: MOLT-4 leukemia
[27] = test system: NCI-H226 lung
[28] = test system: NCI-H23 lung
[29] = test system: NCI-H460 lung
[30] = test system: NCI-H522 lung
[31] = test system: NCI/ADR-RES ovarian
[32] = test system: OVCAR-3 ovarian
[33] = test system: OVCAR-4 ovarian
[34] = test system: OVCAR-5 ovarian
[35] = test system: OVCAR-8 ovarian
[36] = test system: PC-3 prostate
[37] = test system: RPMI-8226 leukemia
[38] = test system: RXF 393 renal
[39] = test system: SF-268 CNS
[40] = test system: SF-295 CNS
[41] = test system: SF-539 CNS
[42] = test system: SK-MEL-2 melanoma
[43] = test system: SK-MEL-28 melanoma
[44] = test system: SK-MEL-5 melanoma
[45] = test system: SK-OV-3 ovarian
[46] = test system: SN12C renal
[47] = test system: SNB-19 CNS
[48] = test system: SNB-75 CNS
[49] = test system: SR leukemia
[50] = test system: SW-620 colon
[51] = test system: T-47D breast
[52] = test system: TK-10 renal
[53] = test system: U251 CNS
[54] = test system: UACC-257 melanoma
[55] = test system: UACC-62 melanoma
[56] = test system: UO-31 renal

## CC(=O)N[C@@H](Cc1ccc(OP(=O)(O)O)cc1)C(=O)N[C@H]1CCC(=O)N2CCC[C@@H](C(=O)NCc3ccccc3)N2C1=O
[1]
  GI50: > 25 µM
  TGI: > 25 µM
[2]
  GI50: > 25 µM
  TGI: > 25 µM
[3]
  GI50: > 25 µM
  TGI: > 25 µM
[4]
  GI50: > 25 µM
  TGI: > 25 µM
[5]
  GI50: > 25 µM
  TGI: > 25 µM
[6]
  GI50: > 25 µM
  TGI: > 25 µM
[7]
  GI50: > 25 µM
  TGI: > 25 µM
[8]
  GI50: > 25 µM
  TGI: > 25 µM
[9]
  GI50: > 25 µM
  TGI: > 25 µM
[10]
  GI50: > 25 µM
  TGI: > 25 µM
[11]
  GI50: > 25 µM
  TGI: > 25 µM
[12]
  GI50: > 25 µM
  TGI: > 25 µM
[13]
  GI50: > 25 µM
  TGI: > 25 µM
[14]
  GI50: > 25 µM
  TGI: > 25 µM
[15]
  GI50: > 25 µM
  TGI: > 25 µM
[16]
  GI50: > 25 µM
  TGI: > 25 µM
[17]
  GI50: > 25 µM
  TGI: > 25 µM
[18]
  GI50: > 25 µM
  TGI: > 25 µM
[19]
  GI50: > 25 µM
  TGI: > 25 µM
[20]
  GI50: > 25 µM
  TGI: > 25 µM
[21]
  GI50: > 25 µM
  TGI: > 25 µM
[22]
  GI50: > 25 µM
  TGI: > 25 µM
[23]
  GI50: > 25 µM
  TGI: > 25 µM
[24]
  GI50: > 25 µM
  TGI: > 25 µM
[25]
  GI50: > 25 µM
  TGI: > 25 µM
[26]
  GI50: > 25 µM
  TGI: > 25 µM
[27]
  GI50: > 25 µM
  TGI: > 25 µM
[28]
  GI50: > 25 µM
  TGI: > 25 µM
[29]
  GI50: > 25 µM
  TGI: > 25 µM
[30]
  GI50: > 25 µM
  TGI: > 25 µM
[31]
  GI50: > 25 µM
  TGI: > 25 µM
[32]
  GI50: > 25 µM
  TGI: > 25 µM
[33]
  GI50: > 25 µM
  TGI: > 25 µM
[34]
  GI50: > 25 µM
  TGI: > 25 µM
[35]
  GI50: > 25 µM
  TGI: > 25 µM
[36]
  GI50: > 25 µM
  TGI: > 25 µM
[37]
  GI50: > 25 µM
  TGI: > 25 µM
[38]
  GI50: > 25 µM
  TGI: > 25 µM
[39]
  GI50: > 25 µM
  TGI: > 25 µM
[40]
  GI50: > 25 µM
  TGI: > 25 µM
[41]
  GI50: > 25 µM
  TGI: > 25 µM
[42]
  GI50: > 25 µM
  TGI: > 25 µM
[43]
  GI50: > 25 µM
  TGI: > 25 µM
[44]
  GI50: > 25 µM
  TGI: > 25 µM
[45]
  GI50: > 25 µM
  TGI: > 25 µM
[46]
  GI50: > 25 µM
  TGI: > 25 µM
[47]
  GI50: > 25 µM
  TGI: > 25 µM
[48]
  GI50: > 25 µM
  TGI: > 25 µM
[49]
  GI50: > 25 µM
  TGI: > 25 µM
[50]
  GI50: > 25 µM
  TGI: > 25 µM
[51]
  GI50: > 25 µM
  TGI: > 25 µM
[52]
  GI50: > 25 µM
  TGI: > 25 µM
[53]
  GI50: > 25 µM
  TGI: > 25 µM
[54]
  GI50: > 25 µM
  TGI: > 25 µM
[55]
  GI50: > 25 µM
  TGI: > 25 µM
[56]
  GI50: > 25 µM
  TGI: > 25 µM
